Assay [1] addresses T1, human type 1 prolyl 4-hydroxylase tetramer (α12β2) (Homo sapiens, UniProt P13674).
T1 construct: made in house; host or cells: Spodoptera frugiperda Sf9 insect cells (baculovirus co-infection); 0.1% Triton X-100 extract
Put plainly: Prolyl 4-hydroxylase activity assay (decarboxylation of 2-oxo[1-14C]glutarate), type 1 enzyme. Conditions: α12β2, recombinant enzyme from insect cells, 0.1% Triton X-100 extract. It counts as biochemical. On the procedure:
(§1) A recombinant baculovirus coding for the mouse α2 subunit was generated and used to infect S. frugiperda insect cells with or without the human PDI/β subunit, wherein the insect cells were infected at a multiplicity of 5. For production of an enzyme tetramer, the human α59 1 (see, Vuori, et al., supra) or mouse α2 viruses and the PDI/β viruses (id.) were used in a 1:1 or 2:1 ratio. […] The resulting supematants were analyzed by SDS/8% PAGE or nondenaturing 7.5% PAGE and assayed for enzyme activities. The cell pellets were further solubilized in 1% SDS, and the 0.1% Triton X-100-soluble and 1% SDS-soluble proteins were analyzed by SDS/PAGE under reducing for the α1 subunit of prolyl 4-hydroxylase (Veijola et al., supra; Vuori et al., supra; John et al. […] The 0.1% Triton X-100 extracts from cell homogenates containing either the mouse-human type II or the human type I enzyme were analyzed for prolyl 4-hydroxylase activity with an assay based on the hydroxylation-coupled decarbosylation of 2-oxo[1^14C]glutarate (Kivirikko and Myllyla, supra).

The target in assay [2] is T2, mouse/human type 2 prolyl 4-hydroxylase tetramer (α22β2) (Mus musculus, UniProt Q60716).
T2 construct: the cDNA clones, considered in combination, cover the whole coding region of the mouse α2 subunit; made in house; host or cells: Spodoptera frugiperda Sf9 insect cells (baculovirus pVL1392 construct, co-infection with PDI/β virus); 0.1% Triton X-100 extract
The experiment in a line: Prolyl 4-hydroxylase activity assay (decarboxylation of 2-oxo[1-14C]glutarate), type 2 enzyme. It counts as biochemical. Conditions: for IC50: α22β2, footnote: values determined as IC50, read-out: Ki column, values determined as IC50. How it is done:
as §1

Where [3] appears, read: α22β2 (mouse α2, human PDI/β), recombinant enzyme from insect cells.

Results on seven molecules are retold here after US20020177203A1, “Alpha2 subunit of prolyl 4-hydroxylase” (priority 1996, published 2002).

As a reminder, the Km is the concentration of substrate that gives half-maximal velocity. By Ki is commonly meant a measure of affinity in units of concentration, obtained from inhibition or displacement. One may read the IC50 as the concentration needed to halve the response being measured.

T2 sequence (Q60716 20-537 limits assumed): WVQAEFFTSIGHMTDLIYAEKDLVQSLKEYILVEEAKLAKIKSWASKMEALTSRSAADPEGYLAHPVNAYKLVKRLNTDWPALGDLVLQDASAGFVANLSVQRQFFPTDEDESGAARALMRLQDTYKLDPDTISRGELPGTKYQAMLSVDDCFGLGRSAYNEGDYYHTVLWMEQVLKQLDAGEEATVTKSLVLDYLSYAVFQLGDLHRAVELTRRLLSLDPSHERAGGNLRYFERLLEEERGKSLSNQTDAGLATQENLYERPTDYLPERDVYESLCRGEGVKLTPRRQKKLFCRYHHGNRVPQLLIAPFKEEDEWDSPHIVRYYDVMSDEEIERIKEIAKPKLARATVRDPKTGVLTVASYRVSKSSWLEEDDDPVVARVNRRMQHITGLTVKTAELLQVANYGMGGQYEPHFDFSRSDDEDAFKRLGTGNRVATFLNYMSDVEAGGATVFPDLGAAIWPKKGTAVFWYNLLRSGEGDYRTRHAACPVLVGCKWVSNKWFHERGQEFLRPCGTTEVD
T2 sequence (P07237 18-508 partner): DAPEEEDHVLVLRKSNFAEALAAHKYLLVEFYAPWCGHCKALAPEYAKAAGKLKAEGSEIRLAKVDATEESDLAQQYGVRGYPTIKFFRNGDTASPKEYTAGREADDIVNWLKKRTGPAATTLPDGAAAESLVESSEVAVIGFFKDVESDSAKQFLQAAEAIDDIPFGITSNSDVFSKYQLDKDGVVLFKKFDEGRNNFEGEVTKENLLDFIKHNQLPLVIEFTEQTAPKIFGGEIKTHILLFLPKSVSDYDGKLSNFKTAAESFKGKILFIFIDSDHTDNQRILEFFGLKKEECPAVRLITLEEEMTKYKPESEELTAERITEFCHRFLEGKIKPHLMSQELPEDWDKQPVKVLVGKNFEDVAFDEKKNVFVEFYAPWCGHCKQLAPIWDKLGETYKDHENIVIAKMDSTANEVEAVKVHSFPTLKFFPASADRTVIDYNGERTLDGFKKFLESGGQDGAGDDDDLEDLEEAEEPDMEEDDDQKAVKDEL
T1 sequence (P13674 18-534): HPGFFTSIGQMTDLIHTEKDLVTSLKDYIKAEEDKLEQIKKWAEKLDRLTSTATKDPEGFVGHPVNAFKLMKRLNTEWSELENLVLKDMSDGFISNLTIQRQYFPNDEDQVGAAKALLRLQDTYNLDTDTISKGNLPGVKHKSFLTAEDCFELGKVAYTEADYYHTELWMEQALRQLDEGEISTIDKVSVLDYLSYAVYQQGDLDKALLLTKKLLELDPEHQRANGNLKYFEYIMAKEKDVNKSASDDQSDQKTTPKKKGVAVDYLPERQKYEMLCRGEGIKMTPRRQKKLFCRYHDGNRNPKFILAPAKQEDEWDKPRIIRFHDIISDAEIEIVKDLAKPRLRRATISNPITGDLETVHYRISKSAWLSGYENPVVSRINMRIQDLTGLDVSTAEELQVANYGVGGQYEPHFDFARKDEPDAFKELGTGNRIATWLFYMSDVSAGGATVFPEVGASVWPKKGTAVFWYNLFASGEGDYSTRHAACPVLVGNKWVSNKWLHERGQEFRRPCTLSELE
T1 sequence (P07237 18-508 partner): as the sequence (P07237 18-508 partner) above

As to `[Fe+2]` [Fe^2+], the Michaelis-Menten constant (Km) in assay [1] and in assay [2] (setting [3]) was 4 µM each time.
Consider `O=C(O)c1ccnc(C(=O)O)c1` [Pyridine-2,4-dicarboxylate], for which the inhibition constant Ki in assay [1] was determined as 2000 nM; in assay [2] (setting [3]) it was 1000 nM.
Regarding Poly(t-proline), Mt 44,000, the Ki in assay [1] is 20 nM. Moreover, the half-inhibitory concentration (IC50) in assay [2] was found to be 30000 nM.
With `O=C(O)CCC(=O)C(=O)O` [2-Oxoglutatrate, 2-oxoglutarate], the values for the Km in assay [1] and in assay [2] (setting [3]) were 22 µM and 12 µM, respectively.
In the case of (Pro-Pro-Gly)10 [(Pro--Pro--Gly)], the figures for the Michaelis-Menten constant (Km) in assay [1] and in assay [2] (setting [3]) were 18 µM and 45 µM, respectively.
Take poly (L-proline): the “inhibition of the type 2 enzyme” value in assay [2] (type 2 enzyme compared with type 1) was “inhibited by poly (L-proline) only at very high concentrations”.
Regarding Poly(t-proline), Mt 7000, in assay [1], the Ki was 500 nM. Also, in assay [2], the IC50 is 300000 nM.
